Assay: Intravenous delivery of CR845 to canines (composite IV data from five studies, reference for bioavailability)
Settings: dog, in vivo, average dose 0.029±0.029 mg/kg, ten kilogram dogs, thirty-six canines
Protocol: Each capsule of prototype formulation 1 contained: 1.6 mg spray dried CR845 in 90% Miglyol 812, 10% sodium caprate. Each capsule of prototype formulation 2 contained: 1.6 mg crystallized CR845 in 90% Miglyol 812, 10% sodium caprate. Each capsule of prototype formulation 3 contained: 1.6 mg spray dried CR845 in 90% Miglyol 812, 10% capric acid. Each capsule of prototype formulation 4 contained: 1.6 mg spray dried CR845 in 70% Miglyol 812 in 30% capric acid. Bioavailability (% f) is expressed as a percent of CR845 observed (calculated from the area under the curve: AUC) as compared with the total CR845 AUC observed after intravenous delivery of the same dose. Composite IV data from five separate studies with thirty-six canines was averaged and used for bioavailability calculations. […] The observed avg.

CC(C)C[C@@H](NC(=O)[C@@H](Cc1ccccc1)NC(=O)[C@H](N)Cc1ccccc1)C(=O)N[C@H](CCCCN)C(=O)N1CCC(N)(C(=O)O)CC1 [CR845, D-Phe-D-Phe-D-Leu-D-Lys-[ω(4-aminopiperidine-4-carboxylic acid)]-OH]
Cmax: 163 ± 39.2 ng/mL

From patent publication US11033629B2, “Oral formulations of kappa opioid receptor agonists” (Cara Therapeutics, Inc., priority 2018, dated 2021)
